Results from US6334445B1, “Methods and compositions for treatment of ovarian cancer” (Baker Norton Pharmaceuticals, Inc., priority 1997, dated 2002).
Like-named read-outs stand apart in the source and are kept apart here.

Experiments:
ovarian cancer = settings: cited from earlier work
breast cancer [1] = settings: cited from earlier work
[2] = infusion times 3 to 24 hours; cited from earlier work
breast cancer [3] = settings: paclitaxel 135 mg/m^2 in combination with cisplatin 75 mg/m^2; cited from earlier work
mammalian cells = settings: 50 nM paclitaxel concentration; cited from earlier work

From the text for ovarian carcinoma: Patients with taxane-resistant ovarian cancer are defined as having (1) progression of disease while receiving taxane therapy; (2) progression within 12 months of taxane therapy; (3) persistent stable disease after six courses of taxane therapy; or (4) persistent stable disease with at least CA-125 rising measurements (to a value of ≧100).
Patients without liver metastases and who had mild liver function abnormalities (SGOT and alkaline phosphatase less than 1.5 times upper normal limit) and a normal bilirubin received a total dose of 140 mg/m^2.
Each mL of sterile solution contains 527 mg polyoxyethylated castor oil (Cremaphor® EL) and 49.7% (w/v) absolute alcohol.
The in-line filter was then connected to the subjects central access device.
The procedure was repeated three more times, for a total 96 hour continuous infusion. The final dose was 140 mg/m^2/96 hours.
Complete response (CR): Complete disappearance of all clinical evidence of disease persisting through the next evaluation period at 6 weeks. Evaluable lesions must have disappeared completely.
Partial Response (PR): At least 50% decrease in the sum of the products of the diameters of all measurable lesions persisting through the next evaluation period at six weeks. In addition, concomitant evaluable lesions must show no evidence of progressive disease or new lesions.
Progressive Disease (PD): 25% or greater progression in the sum of the products of the diameter of any measurable lesion(s) over one cycle of chemotherapy or the appearance of any new lesion consistent with metastatic disease.

CC(=O)O[C@H]1C(=O)[C@@]2(C)[C@H]([C@H](OC(=O)c3ccccc3)[C@]3(O)C[C@H](OC(=O)[C@H](O)[C@@H](NC(=O)c4ccccc4)c4ccccc4)C(C)=C1C3(C)C)[C@]1(OC(C)=O)CO[C@@H]1C[C@@H]2O [paclitaxel, 5β, 20-epoxy-1 ,2α4,7β10β13α-hexahydroxytax-11-en-9-one 4, 10-diacetate 2-benzoate 12-ester with (2R,3S)-Nbenzoyl-3-phenylisososerine]
response rate (ovarian cancer; 135 mg/m^2 every three weeks): 15% | response rate (ovarian cancer; 175 mg/m^2 every three weeks): 20% | time to tumor progression (ovarian cancer; higher dose (175 mg/m^2)): 19 weeks | time to tumor progression (ovarian cancer; lower dose (135 mg/m^2)): 14 weeks | partial responses (ovarian carcinoma; of 14 patients, 140 mg/m^2 over 96 hour infusion every 21 days): 3 | patients with stable disease (ovarian carcinoma; of 14 patients, 96 hour infusion): One | overall response rate (ovarian carcinoma; partial responses plus stable disease, 14 patients, 96 hour infusion): 29% | response rate (ovarian carcinoma; partial responses, 14 patients, 96 hour infusion): 21% | response rate (breast cancer [1]; doses of 250 mg/m^2 with G-CSF, single agent): 36-71% | response rate (breast cancer [1]; doses of 135 to 175 mg/m^2, single agent): 13-37% | dose limiting toxicity [2]: reversible myelosuppression | response rate (breast cancer [3]): 79% | effect on microtubules and cells (mammalian cells): significant increase in microtubule number
